According to US20200396997A1, “A STABLE AGROCHEMICAL COMPOSITION” (priority 2018, published 2020):

What was measured:
Type in all cases: physicochemical
[1] = Study of chloronicotinyl compositions with and without EO/PO block copolymer end-capped with methyl group (7 and 14 days AHS)
Method: Study of Chloronicotinyl Compositions Having EO/PO Block Copolymer End-Capped with Methyl Group and without Having EO/PO Block Polymer End-Capped with Methyl Group
The composition described in Example-4 (having EO/PO block copolymer end-capped with methyl group) prepared according to the process disclosed in the present invention was tested against the composition described in Example-7 (having no EO/PO block copolymer). The objective of study was to determine the effect of EO/PO block copolymer end-capped with alkyl group on chloronicotinyl compounds in preventing degradation of the compositions as well as the overall stability to the compositions.

[2] = Comparative study of compositions with end-capped vs non-end capped EO/PO block polymer (7 and 14 days AHS)
Method: Comparative Study of the Compositions with EO/PO Block Copolymer End-Capped with Methyl Group and Non-End Capped EO/PO Block Polymer
The composition described in Example-1 (having EO/PO block copolymer end-capped with methyl group) prepared according to the process disclosed in the present invention was tested against the composition described in Example-3 (having non-alkyl end-capped EO/PO block copolymer). The objective of study was to determine the effect EO/PO block copolymer end-capped with alkyl group in preventing degradation of active ingredients and to impart overall stability to the composition.

[3] = Stability of active ingredients in real time study (19 months ambient); settings: composition of Example-2
Text: Stability of Active Ingredients Observed in Real Time Study
The composition prepared in Example-2 according to the process disclosed in the present invention is kept for real time study to observe degradation pattern of active ingredients. The composition was kept for 19 months in ambient conditions. Acetamiprid and Acephate found to be very stable with 3.5% and 2.31% degradation respectively. This resulted into an overall stable agrochemical composition.

[4] = Stability study of active ingredients in various storage conditions (unpacked / water soluble pouch); settings: composition of Example-1; for % Degradation: 14 days AHS at 54° C. vs ambient; for 14 D AHS / AMB: content of active; for 14 D AHS: 14 days AHS at 54° C.; for AMB: ambient
Method: Stability Study of Active Ingredients in Various Storage Conditions
The composition described in Example-1 prepared according to the process disclosed in the present invention was tested to determine the stability of active ingredients when subjected to various storage conditions. Degradation of active ingredients was calculated at ambient conditions and in 14 days AHS at 54° C. for the composition kept as unpacked and as packed in water soluble pouch. Acetamiprid and Acephate both found to be stable in unpacked as well as when packed in the water soluble pouch.

[5] = 19 months in ambient conditions

In the case of `N#C/N=C1\SCCN1Cc1ccc(Cl)nc1` [Thiacloprid], the Degradation observed ([1]; 7 days AHS, active in composition comprising EO/PO block copolymer end-capped with methyl group (Example-4)) is reported as 0.58%, the Degradation observed ([1]; 7 days AHS, active in composition prepared without using end-capped EO/PO block copolymer (Example-7)) is reported as 5.1% and the Degradation observed ([1]; 14 days AHS, active in composition comprising EO/PO block copolymer end-capped with methyl group (Example-4)) is reported as 0.93%. The Degradation observed ([1]; 14 days AHS, active in composition prepared without using end-capped EO/PO block copolymer (Example-7)) was 7.91%.

Compound `COP(=O)(NC(C)=O)SC` (centres unmarked) [Acephate, N-(Methoxy-methylsulfanylphosphoryl) acetamide] has a Degradation observed ([2]; 7 days AHS, active in composition comprising EO/PO block copolymer end-capped with methyl group (Example-1)) of 0.64%, a Degradation observed ([2]; 7 days AHS, active in composition comprising non end-capped EO/PO block copolymer (Example-3)) of 1.5% and a Degradation observed ([2]; 14 days AHS, active in composition comprising EO/PO block copolymer end-capped with methyl group (Example-1)) of 1.02%. The Degradation observed ([2]; 14 days AHS, active in composition comprising non end-capped EO/PO block copolymer (Example-3)) was 1.92%, the degradation ([3]; 19 Month Real Time) was 3.50 and the degradation [3, 5] was 2.31%. For the same compound, the “stability of active (in words)” value [3, 5] was “very stable”, the “19 Month Real Time” value ([3]; content of active, 19 months in ambient conditions) was 85.03 and the Ambient ([3]; content of active, start) was 88.11. The “% Degradation” value ([4]; Packed in Water Soluble Pouch) was 1.29%, the “% Degradation” value ([4]; Without Packing) was 0.75% and the “stability of active (in words)” value ([4]; unpacked as well as packed in the water soluble pouch) was “stable”. For the same compound, the “14 D AHS” value ([4]; Packed in Water Soluble Pouch) was 87.13, the “14 D AHS” value ([4]; Without Packing) was 87.81 and the AMB ([4]; Packed in Water Soluble Pouch) was 88.59. It also gave an AMB ([4]; Without Packing) of 88.59.
